Read-outs that look alike come from different tables or passages of the source.
Tests used:
α2-GABAA receptor [1] = molecular target: T1, α2-GABAA receptor (Homo sapiens, UniProt P18507+P47869); test: Radioactive ligand (3H-flunitrazepam) competitive binding assay, BZD site of membrane proteins of α2-GABAAR-HEK293 cells
T1 construct: expressed in transfected cells
Description: The α subunit, β subunit, and γ subunit are indispensable for forming a fully functional GABAA receptor. In this example, HEK293 cells stably expressing α2-GABAA receptors (α2-GABAAR) were constructed and screened respectively via liposome transfection (Felgner, P.L., et al. Proceedings of the National Academy of Sciences, 1987, 84: 7413-7417). The α2-GABAAR-HEK293 cell model co-expresses the α2 subunit (protein sequence referenced under GenBank accession number: NM_000807.4), β3 subunit (protein sequence referenced under GenBank accession number: NM_000814.5), and γ2 subunit (protein sequence referenced under GenBank accession number: NM_000816.3).
The above cell lines were subcultured. α2-GABAAR-HEK293 cells were amplified for testing the affinity of compounds to the benzodiazepine (BZD) site of GABAA receptors. Some of the α2-GABAAR-HEK293 cells in suspension during subculturing were plated on glass slides pre-treated with Poly-D-Lysine for electrophysiological testing (method reference: Patent CN 107344936 A, paragraph 0586).
The affinity of the compound for the α2-GABAA receptor was determined by competing with ^3H-flunitrazepam (isotope ^3H-labeled flunitrazepam) for binding to the BZD site of membrane proteins in HEK293 cells stably expressing human α2-GABAAR.
Membrane preparation: Cells were suspended in 50 mM Tris-HCl buffer (pH=7.4), homogenized on ice using a homogenizer for 20 seconds with 10 repetitions, and centrifuged at 4°C, 1000g for 10 minutes. The supernatant was collected, and the above steps were repeated. The supernatant was centrifuged at 4°C (33,800 × g; Thermo, rotor: A27-8x50) for 60 minutes, and the pellet was resuspended in Tris buffer (50 mM Tris-HCl, 10 mM MgCl2, 0.5 mM EDTA, 10% glycerol). The protein concentration was determined using the bicinchoninic acid (BCA) protein assay based on the copper ion reduction method (BCA kit purchased from Pierce (Annoron)). Aliquots of 1 mL were prepared and stored at -80°C.
Radioactive ligand competitive binding assay: This assay was conducted in a 200 µL system (96-well plate), containing 100 µL of cell membrane. The concentration of ^3H-flunitrazepam was 1 nM, and the concentration of the test compound ranged from […]. Flumazenil was used as a control. The low signal control well (Low Control, LC) was added with 1 µL of 2 mM flumazenil (final concentration 10 µM), while the high signal control well (High Control, HC) was added with 1 µL of dimethyl sulfoxide. The final concentration of the target membrane protein was 5 µg/well. All test compound stock solutions were prepared as 10 mM solutions in dimethyl sulfoxide. The working concentration of the samples was prepared by diluting all samples to 0.2 mM with dimethyl sulfoxide, followed by a 4-fold serial dilution to obtain a total of 8 concentration gradients. The 96-well plate was sealed with sealing film and then incubated on a shaker at room temperature for 1 hour. The GF/C filter plate was also soaked with a soaking buffer (0.3% PEI (polyethyleneimine, purchased from: Sigma-Aldrich, model: P314), stored at 4°C) for at least 0.5 hours. After the incubation was completed, the mixture was collected onto a GF/C filter plate using a cell harvester and washed four times with wash buffer (50 mM Tris-HCl, pH 7.4, stored at 4°C). After drying in a 50°C oven for 1 hour, the dried GF/C filter plate was sealed at the bottom with a film. The residual radioactivity on the filter membrane was detected using liquid scintillation counting. Each well was filled with 50 µL of scintillation fluid and sealed. Readings were taken using a Microbeta^2 (microplate counter, purchased from PerkinElmer, model: CNLL0153). The inhibitory activity of the test sample on the binding of ^3H-flunitrazepam to GABAA receptor membrane protein was calculated. […]

α2-GABAA receptor [2] = molecular target: T1, α2-GABAA receptor; test: Whole-cell patch-clamp electrophysiology, positive allosteric modulatory activity in α2-GABAAR-HEK293 cells; format: cell-based; conditions: compound 100 nM, GABA 0.10 to 0.11 µM (approximately EC7-8), normalized to reference compound CVL-865 (= 100%); for Emax at 0.1 µM: read-out: α2-GABAAR Positive allosteric modulatory activity
Method in brief: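 HEK293 cells stably co-expressing α2β3γ2 GABAA receptor, whole-cell patch clamp at -60 mV. Compounds at 100 nM final applied with GABA 0.10–0.11 µM (~EC7-8) after GABA-only current stabilized. […]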

[3] = competition with 1 nM 3H-flunitrazepam; HEK293 membranes expressing α2, β3, γ2 subunits; Ki calculated from IC50; read-out: α2 Ki

| SMILES | Ki (α2-GABAA receptor [1]; [3]) [nM] | Emax at 0.1 µM (α2-GABAA receptor [2]) [%] | Ki (α2-GABAA receptor [1]; read-out: α2 Ki; competition with 1 nM 3H-flunitrazepam; HEK293 membranes expressing α2, β3, γ2 subunits; Ki calculated from IC50) [nM] | α2-GABAAR Positive allosteric modulatory activity (α2-GABAA receptor [2]) [%] |
| --- | --- | --- | --- | --- |
| CCCNC(=O)c1nc2c(-c3cccc(C)c3F)cccn2c1N [Example 64, 3-Amino-8-(2-fluoro-3-methylphenyl)-N-propylimidazo[1,2-a]pyridine-2-carboxamide] | 3.37 | 93 |  |  |
| COc1ccc(C#N)cc1-c1cccn2c(N)c(C(=O)NC3CC(C)C3)nc12 (stereo not shown) [Example 34, 3-Amino-8-(5-cyano-2-methoxyphenyl)-N-(3-methylcyclobutyl)imidazo[1,2-a]pyridine-2-carboxamide] | 5.07 | 101 |  |  |
| COc1ccc(F)c(F)c1-c1cccn2c(N)c(C(=O)NC3CC(C)C3)nc12 (stereo not shown) [Example 32, 3-Amino-8-(2,3-difluoro-6-methoxyphenyl)-N-(3-methylcyclobutyl)imidazo[1,2-a]pyridine-2-carboxamide] | 7.33 | 50 |  |  |
| CCCNC(=O)c1nc2c(-c3cc(C)cnc3OC)cccn2c1N [Example 83, 3-Amino-8-(2-methoxy-5-methylpyridin-3-yl)-N-propylimidazo[1,2-a]pyridine-2-carboxamide] | 5.9 | 164 |  |  |
| COc1cccc(F)c1-c1cccn2c(N)c(C(=O)NC3CC(F)(F)C3)nc12 [Example 9, 3-Amino-N-(3,3-difluorocyclobutyl)-8-(2-fluoro-6-methoxyphenyl)imidazo[1,2-a]pyridine-2-carboxamide] | 93 | 52 |  |  |
| CCCNC(=O)c1nc2c(-c3cccc(CC#N)c3)cccn2c1N [Example 36, 3-amino-8-(3-(cyanomethyl)phenyl)-N-propylimidazo[1,2-a]pyridine-2-carboxamide] | 21.2 | 181 |  |  |
| COc1cccc(F)c1-c1cccn2c(N)c(C(=O)Nc3cc(C)on3)nc12 [Example 16, 3-Amino-8-(2-fluoro-6-methoxyphenyl)-N-(5-methylisoxazol-3-yl)imidazo[1,2-a]pyridine-2-carboxamide] | 19.3 | 200 |  |  |
| CCCNC(=O)c1nc2c(Oc3cc(F)ccc3OC)cccn2c1N [Example 144, 3-Amino-8-(5-fluoro-2-methoxyphenoxy)-N-propylimidazo[1,2-a]pyridine-2-carboxamide] | 4.97 | 95 |  |  |
| CCCNC(=O)c1nc2c(-c3cc4c(cc3OC)N(C)C(=O)CO4)c(F)ccn2c1N [Example 123, 3-Amino-7-fluoro-8-(6-methoxy-4-methyl-3-oxo-3,4-dihydro-2H-benzo[b][1,4]oxazin-7-yl)-N-propylimidazo[1,2-a]pyridine-2-carboxamide] | 4.97 | 71 |  |  |
| CCCNC(=O)c1nc2c(-c3c(F)cccc3OC)cccn2c1N [Example 3, 3-Amino-8-(2-fluoro-6-methoxyphenyl)-N-propylimidazo[1,2-a]pyridine-2-carboxamide] | 24 | 105 |  |  |
| COc1cccc(F)c1-c1cccn2c(N)c(C(=O)Nc3ccccc3)nc12 [Example 13, 3-Amino-8-(2-fluoro-6-methoxyphenyl)-N-phenylimidazo[1,2-a]pyridine-2-carboxamide] | 44 | 107 |  |  |
| COc1cccc(F)c1-c1cccn2c(N)c(C(=O)NCCC(F)(F)F)nc12 [Example 25, 3-Amino-8-(2-fluoro-6-methoxyphenyl)-N-(3,3,3-trifluoropropyl)imidazo[1,2-a]pyridine-2-carboxamide] | 28.8 | 91 |  |  |
| CCCNC(=O)c1nc2c(-c3cc(C4CC4)ccc3OC)cccn2c1N [Example 68, 3-Amino-8-(5-cyclopropyl-2-methoxyphenyl)-N-propylimidazo[1,2-a]pyridine-2-carboxamide] | 51 | 92 |  |  |
| CCCNC(=O)c1nc2c(-c3cccnc3OC)cccn2c1N [Example 82, 3-Amino-8-(2-methoxypyridin-3-yl)-N-propylimidazo[1,2-a]pyridine-2-carboxamide] | 22.3 | 93 |  |  |
| CCCNC(=O)c1nc2c(-c3cc(C(F)(F)F)ccc3OC)cccn2c1N [Example 58, 3-Amino-8-(2-methoxy-5-(trifluoromethyl)phenyl)-N-propylimidazo[1,2-a]pyridine-2-carboxamide] | 34.5 | 103 |  |  |
| CCCNC(=O)c1nc2c(-c3cc(-c4cnnc5c4ncn5CC)ccc3OC)cccn2c1N [Example 71, 3-Amino-8-(5-(7-ethyl-7H-imidazo[4,5-c]pyridazin-4-yl)-2-methoxyphenyl)-N-propylimidazo[1,2-a]pyridine-2-carboxamide] | 7.43 | 130 |  |  |
| CCCNC(=O)c1nc2c(-c3cccc(C#N)c3)cccn2c1N [Example 35, 3-Amino-8-(3-cyanophenyl)-N-propylimidazo[1,2-a]pyridine-2-carboxamide] | 13.3 | 108 |  |  |
| CCCNC(=O)c1nc2c(-c3cccc(C)c3)cccn2c1N [Example 48, 3-Amino-N-propyl-8-(3-methylphenyl)imidazo[1,2-a]pyridine-2-carboxamide] | 14.2 | 71 |  |  |
| CCCNC(=O)c1nc2c(-c3cc(F)ccc3F)cccn2c1N [Example 52, 3-Amino-8-(2,5-difluorophenyl)-N-propylimidazo[1,2-a]pyridine-2-carboxamide] | 11.2 | 63 |  |  |
| CCCNC(=O)c1nc2c(-c3cc(F)ccc3OC)cccn2c1N [Example 51] |  |  | 26 | 121 |
| CCCNC(=O)c1nc2c(-c3cc(C#N)ccc3OC)cccn2c1N [Example 60, 3-Amino-8-(5-cyano-2-methoxyphenyl)-N-propylimidazo[1,2-a]pyridine-2-carboxamide] | 5.7 | 140 |  |  |
| COc1cccc(F)c1-c1cccn2c(N)c(C(=O)NCCCF)nc12 [Example 27, 3-Amino-8-(2-fluoro-6-methoxyphenyl)-N-(3-fluoropropyl)imidazo[1,2-a]pyridine-2-carboxamide] | 32 | 84 |  |  |
| COc1cccc(F)c1-c1cccn2c(N)c(C(=O)NCc3ccccc3)nc12 [Example 19, 3-Amino-N-benzyl-8-(2-fluoro-6-methoxyphenyl)imidazo[1,2-a]pyridine-2-carboxamide] | 13.9 | 65 |  |  |
| COc1cccc(F)c1-c1cccn2c(N)c(C(=O)NC3CCCC3)nc12 [Example 12, 3-Amino-N-cyclopentyl-8-(2-fluoro-6-methoxyphenyl)imidazo[1,2-a]pyridine-2-carboxamide] | 34.1 | 32 |  |  |
| CCCNC(=O)c1nc2c(-c3cc(Cl)ccc3OC)cccn2c1N [Example 62, 3-Amino-8-(5-chloro-2-methoxyphenyl)-N-propylimidazo[1,2-a]pyridine-2-carboxamide] | 5.29 | 192 |  |  |
| CCCNC(=O)c1nc2c(-c3cnccc3OC)cccn2c1N [Example 85, 3-Amino-8-(4-methoxypyridin-3-yl)-N-propylimidazo[1,2-a]pyridine-2-carboxamide] | 17.2 | 100 |  |  |

Reference: patent EP4703359A1 (Shanghai Simr Biotechnology Co., Ltd., priority 2023, dated 2024)
